Patent US20180333389A1, “VITAMIN E COMPOSITIONS AND METHODS OF USE THEREFOR” (BIOELECTRON TECHNOLOGY CORPORATION, priority 2017, published 2018)
Read-outs that look alike come from different tables or passages of the source.

Experiments:
[1] = molecular target: SQR (sulfide:quinone oxidoreductase) (Homo sapiens, UniProt Q9Y6N5); assay: SQR activity of alpha-tocopherol quinones (rate of quinone reduction, absorbance at 266 nm); assay type: biochemical; settings: for rate of quinone reduction by SQR: 100 μM quinone, 25 nM SQR, 25° C., pH 7.5
Protocol: SQR activity in the presence of varying concentrations of the isomers of quinone derivatives of Vitamin E was evaluated by monitoring the rate of quinone reduction using the absorbance of the quinone at 266 nm. Assays were conducted at 25° C. and pH 7.5 in a volume of 100 μL in the following buffer system: 100 mM Tris, 0.5 mM EDTA, 1.0% (w/v) Triton X-100 reduced. Sulfide (as Na2S nonahydrate) as reducing substrate and sulfite (as Na2SO3) as sulfur acceptor substrate were held constant at saturating concentrations of 200 μM and 2 mM, respectively. Quinone substrates were added to final concentrations between 0-200 μM from DMSO stock solutions resulting in 2% final concentration of DMSO (enzymatic rates were independent of DMSO concentration in this range). SQR was added at 25 nM.

[2] = test system: Q7 cells (ST HDH Q7/7; immortalized mouse striatal cells); assay: Q7 striatal cell survival assay upon cystine deprivation; assay type: cell-based; settings: for EC50: Q7 cell survival after 18 h in cystine-free medium, Cell Titer Glo, read-out: EC50 (nM) geometric mean (n ≥ 3 independent experiments); for potency in rescuing Q7 cells from oxidative stress relative to the RRR isomer: compared with RRR-alpha-tocopherol
Protocol: In neuronal cells excess extracellular glutamate inhibits the cystine/glutamate antiporter leading to intracellular cysteine depletion, GSH depletion, ROS production and cell death, a phenomenon termed oxidative glutamate toxicity or oxytosis. Q7 cells (ST HDH Q7/7; immortalized mouse striatal cells) challenged with cystine-free media recapitulate this phenotype. An initial screen was performed to identify compounds effective in rescuing Q7 cells from death resulting from cystine deprivation. This method is further described in Yonezawa et al., J. Neurochem 67, 566-573 (1996), and Li et al., J Neurosci., 23, 5816-5826 (2003).
DMEM (Catalog no. 11995-040), DMEM without Cystine (Catalog no. 21013-024), PBS (Phosphate buffered saline), Penicillin-streptomycin mix, L-Glutamine and Pyruvate were purchased from Gibco. Fetal Bovine Serum was obtained from Mediatech, Inc. Mouse striatum derived ST HDH Q7/7 (Q7) cells were obtained from Dr. M. MacDonald (Massachusetts General Hospital). Methionine and Vitamin K2 were purchased from Sigma Aldrich. Cell Titer Glo 2.0 was purchased from Promega. Geneticin (G418) Sulfate was purchased from Santa Cruz Biotechnology. Cell culture medium (Growth medium) was made by combining 50 mL Fetal Bovine Serum, 100 U/mL penicillin, 100 microgram/mL streptomycin and 400 microgram/mL Geneticin (G418) Sulfate; DMEM was added to make the volume up to 500 mL. Assay medium (without Cystine) was made by combining 50 mL Fetal Bovine Serum, 100 U/mL penicillin, 100 microgram/mL streptomycin, 4 mM L-Glutamine, 1 mM Pyruvate and 30 mg/L Methionine; DMEM without Cystine was added to make the volume up to 500 mL. During the course of the experiments, these solutions were stored at 4° C. The cells were grown in 10-cm diameter tissue culture-treated dishes. Every fourth day, the cells were subcultured by trypsinization and re-seeding at a cell density of 500,000 cells per dish.
Test samples were supplied in 1.5 mL glass vials. The compounds were diluted with an appropriate volume of DMSO to result in a 1 mM stock solution. Once dissolved, they were stored at −20 ° C.
Q7 cells were cultured routinely as described herein. For 384-well cell survival assays, cells were seeded in clear bottom, black wall 384-well tissue culture-treated polystyrene plates by resuspending a cell suspension at a density of 50,000 cells/mL in growth medium, then dispensing 60 microliters of cell suspension per well using either an electronic multichannel pipette or a Multidrop™ Combi Reagent Dispenser (ThermoFisher Scientific), corresponding to 3,000 cells/well. The cell-containing plates were incubated 5 hours at 33° C. in an atmosphere with 95% humidity and 5% CO2 to allow attachment of the cells to the culture plate. 5 hours after cell seeding into the 384-well assay plate, the cell culture medium was replaced by washing 2 times with 70 microliters/well PBS (without Ca^++ and Mg^++) using a BioTek ELx405 plate washer. After the final aspiration, 60 microliters/well of assay medium (without cystine) was added using the Multidrop™ Combi Reagent Dispenser. […]
After medium change to cystine-free medium and compound addition, cell plates were incubated at 33° C. in an atmosphere of 5% CO2 and 95% humidity. […] After 15 minutes of incubation at room temperature, the luminescence (100 ms integration time) per well was determined using the BioTek Synergy plate reader. […]

[3] = test system: Normal human fibroblast cells (NHF); assay: Conversion of alpha-tocopherol to the corresponding quinone in NHF cells; assay type: in vitro ADME
Protocol: (§1) DMEM (Catalog no. 11995-040), Penicillin-streptomycin mix, Geneticin (G418) Sulfate were purchased from Thermo Fisher Scientific. Fetal Bovine Serum was obtained from Sigma Aldrich. Mouse striatum-derived ST HDH Q7/7 (Q7) cells were obtained from Dr. M. MacDonald (Massachusetts General Hospital). HepG2 cells were obtained from ATCC. Normal human fibroblast cells (NHF) were obtained from Coriell. Cell culture medium for Q7 cell was prepared by combining 50 mL Fetal Bovine Serum, 100 U/mL penicillin, 100 microgram/mL streptomycin, and 400 microgram/mL Geneticin (G418) Sulfate; DMEM was added to bring the final volume to 500 mL. For HepG2 cells and NHF, cell culture medium was made by combining 50 mL Fetal Bovine Serum, 100 U/mL penicillin, and 100 microgram/mL streptomycin; DMEM was added to bring the final volume to 500 mL. During the course of the experiments, these solutions were stored at 4° C. The cells were grown in 150-cm^2 tissue culture-treated flasks until they reached 90% confluency.
Test samples were supplied in 1.5 mL glass vials. The compounds were diluted with an appropriate volume of DMSO to result in a 10 mM stock solution. Once dissolved, they were stored at −20 ° C.
Test samples were applied according to the following protocol:
Q7, HepG2, and NHF Cells were seeded separately in clear bottom, 96-well tissue culture-treated polystyrene plates by resuspending each cell suspension at a density of 200,000 cells/mL in cell culture medium, then dispensing 50 microliters of cell suspension per well using an electronic multichannel pipette, corresponding to 10,000 cells/well. […]
(§2) Quantification of compounds was determined by mass spectrometry.
(§3) The rate of conversion of R,R,R-alpha-tocopherol (black bars) and a 1:1:1:1:1:1:1:1 equimolar mixture of all 8 stereoisomers of alpha-tocopherol (grey bars) to their corresponding quinones was measured in NHF cells and is shown in FIG. 3. The percent of total cellular compound in the quinone form was measured at two different dosed concentrations: 3 μM and 10 μM. […]

[4] = test system: Mouse striatum-derived ST HDH Q7/7 (Q7) cells; assay: Conversion of alpha-tocopherol to the corresponding quinone in Q7 cells; assay type: in vitro ADME; settings: dosed at 1 μM, 3 μM and 10 μM, all three concentrations
Protocol: as §1, with “The cells were grown in 150-cm^2 tissue culture-treated flasks until they reached 90% confluency.” left out
as §2
as §3, with “in Q7” for “in NHF”, “FIG. 4.” for “FIG. 3.”, “at three” for “at two”, “concentrations: 1 μM,” for “concentrations:”, “3 μM,” for “3 μM”

HepG2 cells = assay: Conversion of alpha-tocopherol to the corresponding quinone in HepG2 cells; assay type: in vitro ADME; settings: dosed at 1 μM, 3 μM and 10 μM, all three concentrations
Protocol: as §1, with “The cells were grown in 150-cm^2 tissue culture-treated flasks until they reached 90% confluency.” left out
as §2
as §3, with “in HepG2” for “in NHF”, “FIG. 2.” for “FIG. 3.”, “at three” for “at two”, “concentrations: 1 μM,” for “concentrations:”, “3 μM,” for “3 μM”

Chain of SQR (sulfide:quinone oxidoreductase) (Q9Y6N5 whole entry): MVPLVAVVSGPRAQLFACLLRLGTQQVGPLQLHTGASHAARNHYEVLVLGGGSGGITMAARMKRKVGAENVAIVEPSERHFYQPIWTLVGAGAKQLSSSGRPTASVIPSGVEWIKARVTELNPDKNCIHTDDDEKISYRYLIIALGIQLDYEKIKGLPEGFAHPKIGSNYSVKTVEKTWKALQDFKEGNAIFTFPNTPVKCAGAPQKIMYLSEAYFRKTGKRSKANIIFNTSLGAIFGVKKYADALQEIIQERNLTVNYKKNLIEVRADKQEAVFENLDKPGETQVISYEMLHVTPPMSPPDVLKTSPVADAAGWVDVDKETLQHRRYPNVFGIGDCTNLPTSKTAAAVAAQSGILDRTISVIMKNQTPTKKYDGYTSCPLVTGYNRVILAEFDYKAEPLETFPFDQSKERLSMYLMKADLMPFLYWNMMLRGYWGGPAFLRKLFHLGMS

**Q.** With `CC1=C(C)C(=O)C(CC[C@](C)(O)CCC[C@H](C)CCC[C@H](C)CCCC(C)C)=C(C)C1=O` [R,R,R-alpha-tocopherol quinone, (R,R,R)-alpha-tocopherol quinone] as the compound, how does the “reduction rate relative to the corresponding S,R,R stereoisomer” value ([1]; 100 μM each) read?
**A.** Its value is “more than twice”.

**Q.** And the “rate of quinone reduction by SQR” value [1]?
**A.** The value was “around 125 nM/s”.

**Q.** What about the “rate of SQR reduction as a function of concentration” value ([1]; in the absence of the S,R,R isomer) of the same compound?
**A.** The value was “increases with increasing R,R,R-alpha-tocopherol quinone concentration”.

**Q.** And the “rate of SQR reduction, upper limit with increasing concentration of the R,R,R isomer” value ([1]; in the presence of S,R,R-alpha-tocopherol quinone)?
**A.** The value was ≤ 100 nM/s.

**Q.** With `CC1=C(C)C(=O)C(CC[C@](C)(O)CCC[C@H](C)CCC[C@H](C)CCCC(C)C)=C(C)C1=O` [S,R,R-alpha-tocopherol quinone, reference compound] as the compound, how does the “rate of quinone reduction by SQR” value [1] read?
**A.** The value was “about 50 nM/s”.

**Q.** And the “effect on the activity of the R,R,R isomer (SQR activity)” value ([1]; 1:1 mixture versus pure R,R,R isomer)?
**A.** Its value is “inhibitory effect”.

**Q.** `Cc1c(C)c2c(c(C)c1O)CC[C@](C)(CCC[C@H](C)CCC[C@H](C)CCCC(C)C)O2` [SRR-alpha-tocopherol] was tested. Which EC50 ([2]; Mus musculus) did it give?
**A.** The EC50 was 372 nM.

**Q.** What about the “potency in rescuing Q7 cells from oxidative stress relative to the RRR isomer” value [2] of the same compound?
**A.** Its value is “approximately half as potent as the RRR isomer”.

**Q.** For `Cc1c(C)c2c(c(C)c1O)CCC(C)(CCCC(C)CCCC(C)CCCC(C)C)O2` (single isomer, unassigned) [Equal mixture of all 8 stereoisomers of alpha-tocopherol, all-rac alpha-tocopherol], which EC50 [2] is on record?
**A.** Its EC50 is 313 nM.

**Q.** And the “potency in rescuing Q7 cells from oxidative stress relative to the RRR isomer” value [2]?
**A.** The value was “approximately half as potent as the RRR isomer”.

**Q.** With `Cc1c(C)c2c(c(C)c1O)CC[C@@](C)(CCC[C@H](C)CCC[C@H](C)CCCC(C)C)O2` [RRR-alpha-tocopherol, (R,R,R)-alpha-tocopherol] as the compound, how does the “percent of compound converted, times higher than the mixture of all 8 stereoisomers” value ([3]; 3 μM) read?
**A.** Its value is “approximately 3 times”.

**Q.** What about the “percent of compound converted, times higher than the mixture of all 8 stereoisomers” value ([3]; 10 μM) of the same compound?
**A.** Its value is “approximately 2 times”.

**Q.** What about the “percent of compound converted to the quinone form, compared with mixture of all 8 stereoisomers” value (“percent … with mixture of all 8 stereoisomers” for short) ([3]; dosed at 3 μM and 10 μM, both concentrations) of the same compound?
**A.** Its value is “higher”.

**Q.** What about the “percent … with mixture of all 8 stereoisomers” value [4] of the same compound?
**A.** Its value is “higher”.

**Q.** What about the EC50 ([2]; Mus musculus) of the same compound?
**A.** Its EC50 is 175 nM.

**Q.** And the “percent … with mixture of all 8 stereoisomers” value (HepG2 cells)?
**A.** The value was “higher”.
